Some test systems named below: ACHN; EKVX; HCC 2998; HL-60; Malme-3M; NCI-H23; OVCAR-3; SF-268; SF-539; TK-10; UACC-257; CAKI-1; HCT-15; M14; OVCAR-4.
Assay in all cases: NCI anticancer screen, dose series, 48 h

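Each compound was tested at five concentrations against cells in 96-well plates for 48 hours. GI50 marks 50% less growth.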 Calls of active or inactive are those of the source. No stated cut-off is given here; in the data, active = GI50 up to about 1.1 µM and inactive = higher.

For `COc1cccc2c1OC1Sc3ccccc3-c3nn(-c4ccccc4)c-2c31` (stereo not given), the GI50 in the assay with ACHN, in the assay on EKVX, in the assay on HCC 2998, with HL-60, in the assay on Malme-3M and in the assay with NCI-H23 was > 100 µM (inactive) throughout. For the same molecule, the GI50 in the assay with OVCAR-3, in the assay on SF-268, with SF-539, in the assay with TK-10 and with UACC-257 was > 100 µM (inactive) in each case.
In the case of `CN(C)CCNC(=O)c1cccc2[nH]c(-c3ccccc3)nc12`, the GI50 was 15.3 µM (inactive) with ACHN; 24.7 µM (inactive) in the assay with CAKI-1; 23.9 µM (inactive) in the assay with EKVX; 15.3 µM (inactive) in the assay with HCC 2998; 15.8 µM in the assay with HCT-15; 21.7 µM (inactive) with HL-60. In addition, the GI50 in the assay on M14 is 17.3 µM (inactive); in the assay on NCI-H23 it was 17.4 µM (inactive); in the assay on OVCAR-3, 21.6 µM (inactive); with OVCAR-4, 28.4 µM (inactive); in the assay on SF-268 it was 18.5 µM (inactive); in the assay with SF-539, 12.2 µM (inactive). Also, the GI50 in the assay on TK-10 is 18.5 µM (inactive); with UACC-257 it was 16.9 µM (inactive).
For `O=C(CSc1nnc(Cc2ccccc2)o1)Nc1cccc(Cl)c1`, the GI50 with ACHN was 46.9 µM (inactive); in the assay with CAKI-1 it was 92.5 µM (inactive); with EKVX it was > 100 µM (inactive); in the assay on HCC 2998, 96.6 µM (inactive); in the assay with HCT-15, 98.4 µM; with HL-60, > 100 µM (inactive). For the same molecule, the GI50 with M14 is 69 µM (inactive); in the assay with Malme-3M it was 63.7 µM (inactive); in the assay on NCI-H23 it was 66.2 µM (inactive); in the assay on OVCAR-3 it was 31.9 µM (inactive); in the assay with OVCAR-4 it was 51.2 µM (inactive); in the assay with SF-268 it was > 100 µM (inactive). For the same molecule, the GI50 in the assay on SF-539, in the assay on TK-10 and in the assay with UACC-257 was > 100 µM (inactive) each time.
Consider `COc1ccc2c(c1)[n+]([O-])c(-c1ccccc1)c(N)[n+]2[O-]`, for which the GI50 in the assay with ACHN is 52.6 µM (inactive); in the assay with CAKI-1, 37.2 µM (inactive); in the assay on EKVX, 43.8 µM (inactive); in the assay on HCC 2998, 54 µM (inactive); in the assay with HCT-15, 35.3 µM; in the assay with HL-60, 41.6 µM (inactive). The GI50 with M14 is 29.4 µM (inactive); in the assay with Malme-3M it was 20.9 µM (inactive); in the assay on NCI-H23, 23.9 µM (inactive); with OVCAR-3, 39.8 µM (inactive); in the assay with OVCAR-4, 47.3 µM (inactive); with SF-268 it was 30.5 µM (inactive). The GI50 in the assay with SF-539 is 32.4 µM (inactive); with TK-10, > 100 µM (inactive); in the assay with UACC-257, 21.2 µM (inactive).
As for `CN(C(=N)c1ccccc1)c1ccccc1`, the GI50 with EKVX is > 100 µM (inactive); with HCC 2998 it was > 100 µM (inactive); in the assay on HCT-15 it was above 100 µM; in the assay with HL-60, > 100 µM (inactive); in the assay on M14 it was > 100 µM (inactive); with NCI-H23 it was > 100 µM (inactive). The GI50 in the assay on OVCAR-3, in the assay with OVCAR-4, with SF-539 and with TK-10 was > 100 µM (inactive) throughout.
`Cc1ccc(-c2c(N)[n+]([O-])c3ccccc3[n+]2[O-])cc1`: the GI50 in the assay on ACHN was 15.4 µM (inactive); with CAKI-1 it was 3.81 µM (inactive); in the assay on EKVX, 23.4 µM (inactive); in the assay on HCC 2998, 15.8 µM (inactive); with HCT-15, 3.42 µM; in the assay on HL-60 it was 9.95 µM (inactive). Besides, the GI50 is 12 µM (inactive) in the assay on M14; 3.47 µM (inactive) in the assay with Malme-3M; 5 µM (inactive) in the assay with NCI-H23; 16 µM (inactive) in the assay with OVCAR-3; 17.3 µM (inactive) in the assay with OVCAR-4; 16.9 µM (inactive) in the assay with SF-268. The GI50 is 11 µM (inactive) in the assay with SF-539, 18.4 µM (inactive) with TK-10 and 7.21 µM (inactive) with UACC-257.
Turning to `c1ccc(CCCC2Sc3cccc4cccc(c34)S2)cc1`, the GI50 in the assay on ACHN is > 100 µM (inactive); in the assay on CAKI-1, > 100 µM (inactive); in the assay with EKVX, > 100 µM (inactive); with HCC 2998 it was 88.7 µM (inactive); with HCT-15, above 100 µM; in the assay with HL-60 it was 64.6 µM (inactive). Besides, the GI50 in the assay with M14 was > 100 µM (inactive); in the assay with Malme-3M, 78.3 µM (inactive); in the assay on NCI-H23 it was > 100 µM (inactive); with OVCAR-3, > 100 µM (inactive); in the assay with OVCAR-4, > 100 µM (inactive); in the assay on SF-268, > 100 µM (inactive). Besides, the GI50 with SF-539 and with TK-10 was > 100 µM (inactive) throughout.
For `C/C(=N\NC(=O)c1ccccc1O)c1c(O)cc(C)oc1=O`, the GI50 was 45 µM (inactive) in the assay with ACHN; 29.9 µM (inactive) with EKVX; 92 µM (inactive) with HCC 2998; 91.2 µM in the assay on HCT-15; 63.2 µM (inactive) in the assay with HL-60; > 100 µM (inactive) in the assay on M14. For the same molecule, the GI50 is 99.5 µM (inactive) with Malme-3M; 84.1 µM (inactive) in the assay with NCI-H23; 41.2 µM (inactive) in the assay with OVCAR-3; 71 µM (inactive) in the assay on OVCAR-4; 49.4 µM (inactive) in the assay on SF-268; 62.8 µM (inactive) with SF-539. Further, the figures for the GI50 in the assay with TK-10 and in the assay with UACC-257 were > 100 µM (inactive) and 60 µM (inactive), respectively.
Take `Cc1cc(=O)n2c3c(c4c(cc13)c(CO)cc(=O)n4C)OC2`: the GI50 in the assay on ACHN is 9.57 µM (inactive); with CAKI-1, 30.7 µM (inactive); in the assay on EKVX it was 64.4 µM (inactive); in the assay on HCC 2998 it was 14.8 µM (inactive); in the assay on M14, 20.6 µM (inactive); in the assay with Malme-3M it was 8.65 µM (inactive). For the same molecule, the GI50 is 13.5 µM (inactive) in the assay on NCI-H23; 11.8 µM (inactive) with OVCAR-3; 17.5 µM (inactive) in the assay on OVCAR-4; 8.18 µM (inactive) in the assay on SF-268; 7.73 µM (inactive) with SF-539; 11.8 µM (inactive) in the assay on TK-10. Besides, the GI50 with UACC-257 was 26.2 µM (inactive).
On to `CCOC(=O)C1(c2ccccc2)CCC(=O)CC1`, for which the GI50 in the assay on ACHN was > 100 µM (inactive); in the assay on CAKI-1, > 100 µM (inactive); with EKVX, > 100 µM (inactive); in the assay with HCC 2998, > 100 µM (inactive); with HCT-15, above 100 µM; in the assay with HL-60 it was > 100 µM (inactive). For the same molecule, the GI50 in the assay on M14, in the assay on Malme-3M, with NCI-H23, in the assay with OVCAR-3, in the assay with OVCAR-4 and in the assay on SF-268 was > 100 µM (inactive) in each case. In addition, the GI50 in the assay on TK-10 and in the assay with UACC-257 was > 100 µM (inactive) throughout.
As to `COC(=O)C1=CC2OC13CC1CCC3(C2=O)C1(C)C` (stereo not given), the GI50 is 8.83 µM (inactive) in the assay with ACHN; 2.2 µM (inactive) with CAKI-1; > 10 µM (inactive) with EKVX; 14.5 µM (inactive) in the assay on HCC 2998; 5.36 µM with HCT-15; 6.9 µM (inactive) in the assay with HL-60. Also, the GI50 in the assay with M14 was 5.28 µM (inactive); with Malme-3M, 8.07 µM (inactive); with NCI-H23, 16 µM (inactive); with OVCAR-3, 5.89 µM (inactive); in the assay on OVCAR-4, 10.9 µM (inactive); in the assay with SF-268 it was 10 µM (inactive). The GI50 in the assay on SF-539 was 14.2 µM (inactive); in the assay on TK-10, 10.4 µM (inactive); in the assay with UACC-257 it was 10.4 µM (inactive).

These data come from ChEMBL document CHEMBL1201862, “PubChem BioAssay data set” (2004).
